Measured values published in patent US9446034B2, “Pyrazolylaminopyridines as inhibitors of FAK” (GlaxoSmithKline LLC, priority 2008, dated 2016).

Legend:
GST-tagged FAK = target: T1, GST-tagged FAK (Homo sapiens, UniProt Q05397); assay: Biochemical assay for FAK activity, Assay 1: GST-FAK, peptide substrate phosphorylation with 33P-ATP; conditions: 5 μM ATP, 30 min pre-incubation, read-out: Assay 1 FAK TRF PXC50 (converted)
T1 construct: purchased Invitrogen PV3832
Method: (§1) Biochemical Assay for FAK Activity
To measure inhibitors of FAK, compounds were first prepared as a 10× stock in 10% DMSO. […] A 6-nM GST-FAK solution was prepared in 1.1× reaction buffer containing 44 mM HEPES, pH=7.2, 11 mM MgCl2, 2.2 mM MnCl2, 1.1 mM DTT and 0.011% Tween-20. Then, 20 μL of the 6 nM GST-FAK solution were pre-incubated with the compounds for 30 min at room temperature. […] The reaction was allowed to proceed for 90 min before being quenched with 40 μL of 1% H3PO4. A portion of the reaction mixture (60 μL) was transferred to a phospho-cellulose filter plate (Millipore; www.millipore.com, MAPHNOB50) and incubated for 20 minutes. The plate was filtrated, washed three times using 150 μL of 0.5% H3PO4 and dried at 50° C. for 30 min. After the addition of 60 μL Microscint-20 to the plate, radioactivity was measured using a TopCount (PerkinElmer; www.PerkinElmer.com).

[1] = target: T2, Full length Human FAK (FLAG-6×His-TEV-huFAK) (Homo sapiens, UniProt Q05397); assay: Biochemical assay for FAK activity, Assay 2: Flag-His-TEV-FAK1, LANCE Ultra ULight peptide phosphorylation; conditions: Flag-His-TEV-FAK1, 10 μM ATP, 30 min pre-incubation; read-out: Assay 2 FAK H 31284A TRF PXC50 (converted)
T2 construct: Full length Human FAK was expressed using baculovirus in Sf9 cells; made in house; host or cells: baculovirus in Sf9 cells
Method: as §1
Assay 2: Flag-His-TEV-FAK1 was prepared in-house. Full length Human FAK was expressed using baculovirus in Sf9 cells with N-terminal FLAG-6×His tags followed by a TEV cleavage site (FLAG-6×His-TEV-huFAK). […] To measure inhibitors of FAK, compounds were first prepared as a 100× stock in 100% DMSO. A small portion of each compound solution (50 nL) was added to a black 384-well low-volume microtiter plate (Greiner 784076). A 1.2 nM Flag-His-TEV-FAK1 solution was prepared in 1× reaction buffer containing 40 mM Tris/Tris-HCL, 10 mM MgCl2, 1 mM CHAPS, at a pH of 7.5, with 1 mM DTT added. 2.5 ul of the 1.2 nM Flag-FAK solution was added to the plates and pre-incubated with the compounds for 30 min at room temperature. […] After incubating for 120 minutes at room temperature, the reaction is quenched by adding 5 uL of 20 mM EDTA and 5nMEu-Anti-pTyr antibody in 1× LANCE detection buffer. After a 30 minute incubation at room temperature, the plate is read on a Perkin Elmer Viewlux with a 320-340 nm excitation filter and measuring emission at 615 nm and 665 nm. The ratio of 665 nm/615 nm is used for data normalization.

T2 sequence (Q05397 whole entry): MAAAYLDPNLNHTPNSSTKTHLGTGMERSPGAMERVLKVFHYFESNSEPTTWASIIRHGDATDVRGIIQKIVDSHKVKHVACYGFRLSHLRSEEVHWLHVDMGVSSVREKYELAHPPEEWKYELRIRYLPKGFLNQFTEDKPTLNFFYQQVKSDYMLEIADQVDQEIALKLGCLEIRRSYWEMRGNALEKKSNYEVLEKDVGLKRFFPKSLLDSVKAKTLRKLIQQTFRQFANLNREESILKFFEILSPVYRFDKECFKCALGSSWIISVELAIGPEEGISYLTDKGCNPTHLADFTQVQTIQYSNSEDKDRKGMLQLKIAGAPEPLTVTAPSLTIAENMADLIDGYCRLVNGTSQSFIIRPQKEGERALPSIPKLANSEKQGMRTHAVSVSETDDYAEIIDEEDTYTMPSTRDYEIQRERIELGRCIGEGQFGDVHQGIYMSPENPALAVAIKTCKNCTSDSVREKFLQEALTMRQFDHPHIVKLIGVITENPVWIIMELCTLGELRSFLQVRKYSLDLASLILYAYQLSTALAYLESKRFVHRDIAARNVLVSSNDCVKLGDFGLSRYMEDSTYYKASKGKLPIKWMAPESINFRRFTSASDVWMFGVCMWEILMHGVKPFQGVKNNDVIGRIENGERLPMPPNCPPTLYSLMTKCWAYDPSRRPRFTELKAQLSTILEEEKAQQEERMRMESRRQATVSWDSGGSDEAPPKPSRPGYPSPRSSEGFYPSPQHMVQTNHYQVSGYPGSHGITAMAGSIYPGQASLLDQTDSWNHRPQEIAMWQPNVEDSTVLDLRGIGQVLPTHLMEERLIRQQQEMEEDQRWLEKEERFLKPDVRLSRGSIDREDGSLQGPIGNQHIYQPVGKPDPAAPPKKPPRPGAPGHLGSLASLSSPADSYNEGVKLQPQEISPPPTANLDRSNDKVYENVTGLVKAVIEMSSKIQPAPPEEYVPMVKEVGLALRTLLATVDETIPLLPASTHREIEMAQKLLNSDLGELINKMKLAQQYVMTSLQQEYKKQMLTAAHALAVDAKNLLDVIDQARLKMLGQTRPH
T1 sequence (Q05397 whole entry): as above

IC50 (GST-tagged FAK) [nM]	IC50 [1] [nM]	Structure (SMILES)
0.794	10	CCn1nccc1Nc1cc(Nc2cc(F)c(F)cc2C(=O)NC)c(Cl)cn1 [Example 10, 2-({5-Chloro-2-[(1-ethyl-1H-pyrazol-5-yl)amino]-4-pyridinyl}amino)-4,5-difluoro-N-methylbenzamide]
6.31	63.1	CCNC(=O)c1ccccc1Nc1cc(Nc2ccnn2CC)ncc1Cl [Example 44, 2-({5-Chloro-2-[(1-ethyl-1H-pyrazol-5-yl)amino]-4-pyridinyl}amino)-N-ethylbenzamide]
